Experimental findings from patent publication US20250051319A1 (AUGUSTINE THERAPEUTICS, priority 2021, published 2025) are described below.

Test [1] deals with catalytic domain 2 (CD2) of HDAC6 (Homo sapiens (Human), UniProt Q9UBN7). The test is described as follows: Cellular target engagement assay - NanoBRET. Particulars: NanoLuc-HDAC6(CD2) in HEK293T cells, 2 hours, read-out: IC50 (HDAC6(CD2) interaction). Format: cell-based.
For test [2], the target named is human full-length recombinant HDAC6 (Homo sapiens (Human), UniProt Q9UBN7). The test is described as follows: HDAC6 enzymatic activity assay (Reaction Biology Corporation, RHKKAc fluorogenic peptide). The test is classed as biochemical. Conditions: Reaction Biology Corporation protocol, RHKKAc fluorogenic peptide 10 μM; read-out: HDAC6 biochem. The method, then:
(§1) Dose response testing of HDAC6 and HDAC 1 were run at Reaction Biology Corporation (RBC). Inhibition of HDAC enzymes was performed using N-terminal GST tagged human full-length recombinant HDAC6 (H88-30G, SignalChem) and C-terminal FLAG His tag human full-length recombinant HDAC1 produced in insect cells (KDA-21-365, RBC). Enzyme reactions were run in 50 mM Tris-HCl, pH8.0, 137 mM NaCl, 2.7 mM KCl, and 1 mM MgCl2 with 1 mg/ml BSA, 1% DMSO freshly added. 2× enzyme was delivered in the wells of the reaction plate except for the “no enzyme” control wells. In the latter, buffer was added. Compounds in 100% DMSO were delved into the enzyme mixture by acoustic technology (Echo550). Plates are spun down and compounds were incubation with the enzyme for 10 min at room temperature. 2× Fluorogenic peptide from p53 residues 379-382 (RHKKAc, 10 μM final concentration) was added in all wells to initiate the reaction, followed by 1 h incubation at 30° C. Developer containing Trichostatin A was added to stop the reaction and generate fluorescent color. A kinetic measurement was carried out for 20 min with 5 min interval on the Envision plate reader (Perkin Elmer, Ex/Em=360/460). End point reading i.e., plateau of the development reaction was used for analysis. Data was reported by RBC as percentage enzyme activity. Percentage inhibition was calculated by subtracting percentage enzyme activity from 100. IC50 values were calculated using GraphPad Prism 9 based on the log(inhibitor) vs. response—Variable slope (four parameters) equation.

Test [3] concerns the target human full-length recombinant HDAC1 (Homo sapiens (Human), UniProt Q13547). Nature of the test: HDAC1 enzymatic activity assay (Reaction Biology Corporation, RHKKAc fluorogenic peptide). The test is classed as biochemical. Particulars: Reaction Biology Corporation protocol, RHKKAc fluorogenic peptide 10 μM; read-out: HDAC1 biochem. The procedure: as §1

Bounds are passed on as bounds.

Sequence of human full-length recombinant HDAC1 (Q13547 whole entry): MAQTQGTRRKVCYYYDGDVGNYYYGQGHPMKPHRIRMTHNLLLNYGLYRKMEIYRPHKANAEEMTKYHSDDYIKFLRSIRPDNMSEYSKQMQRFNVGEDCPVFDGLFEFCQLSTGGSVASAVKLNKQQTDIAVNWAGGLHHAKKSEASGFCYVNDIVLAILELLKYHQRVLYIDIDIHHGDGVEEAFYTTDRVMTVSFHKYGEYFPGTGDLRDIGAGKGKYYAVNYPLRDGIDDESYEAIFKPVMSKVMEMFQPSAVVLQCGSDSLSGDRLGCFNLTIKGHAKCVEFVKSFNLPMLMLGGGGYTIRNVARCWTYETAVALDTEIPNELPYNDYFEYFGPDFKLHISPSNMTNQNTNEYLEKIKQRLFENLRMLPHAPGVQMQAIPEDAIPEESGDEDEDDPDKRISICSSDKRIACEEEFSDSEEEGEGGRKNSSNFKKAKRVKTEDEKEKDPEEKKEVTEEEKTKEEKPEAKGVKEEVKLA
Sequence of human full-length recombinant HDAC6 (Q9UBN7 whole entry): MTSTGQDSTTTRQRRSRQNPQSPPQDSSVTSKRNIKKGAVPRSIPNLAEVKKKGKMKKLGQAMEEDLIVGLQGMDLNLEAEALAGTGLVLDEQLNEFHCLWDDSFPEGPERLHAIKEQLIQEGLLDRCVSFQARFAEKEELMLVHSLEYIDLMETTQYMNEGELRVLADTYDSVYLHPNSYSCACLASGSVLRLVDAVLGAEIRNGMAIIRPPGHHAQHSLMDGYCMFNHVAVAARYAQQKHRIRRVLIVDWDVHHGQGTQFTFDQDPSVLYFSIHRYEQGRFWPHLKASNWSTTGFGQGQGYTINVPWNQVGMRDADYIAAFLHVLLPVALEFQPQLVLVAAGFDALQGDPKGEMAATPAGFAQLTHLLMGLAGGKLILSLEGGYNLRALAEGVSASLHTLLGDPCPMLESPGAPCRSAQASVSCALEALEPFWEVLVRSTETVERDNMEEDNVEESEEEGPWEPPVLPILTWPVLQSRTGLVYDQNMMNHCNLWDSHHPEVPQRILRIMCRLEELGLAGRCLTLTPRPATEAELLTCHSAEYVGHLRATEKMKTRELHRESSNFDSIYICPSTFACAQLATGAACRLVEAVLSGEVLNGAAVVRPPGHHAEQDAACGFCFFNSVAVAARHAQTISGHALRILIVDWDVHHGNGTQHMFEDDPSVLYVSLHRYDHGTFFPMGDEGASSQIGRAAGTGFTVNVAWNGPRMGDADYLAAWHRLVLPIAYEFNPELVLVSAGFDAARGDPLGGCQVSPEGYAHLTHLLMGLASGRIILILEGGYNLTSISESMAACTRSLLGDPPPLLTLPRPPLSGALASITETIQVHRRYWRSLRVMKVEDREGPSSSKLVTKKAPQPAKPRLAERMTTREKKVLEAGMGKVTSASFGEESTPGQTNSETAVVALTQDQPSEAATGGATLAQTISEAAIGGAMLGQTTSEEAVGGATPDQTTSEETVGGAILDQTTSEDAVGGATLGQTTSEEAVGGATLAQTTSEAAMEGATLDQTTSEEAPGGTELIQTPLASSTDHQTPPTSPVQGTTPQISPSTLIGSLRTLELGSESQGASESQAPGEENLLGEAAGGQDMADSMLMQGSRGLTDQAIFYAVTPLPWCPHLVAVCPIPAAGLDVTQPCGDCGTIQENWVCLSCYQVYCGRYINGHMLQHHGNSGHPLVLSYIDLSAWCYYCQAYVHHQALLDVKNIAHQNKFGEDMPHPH
Sequence of catalytic domain 2 (CD2) of HDAC6 (Q9UBN7 482-800): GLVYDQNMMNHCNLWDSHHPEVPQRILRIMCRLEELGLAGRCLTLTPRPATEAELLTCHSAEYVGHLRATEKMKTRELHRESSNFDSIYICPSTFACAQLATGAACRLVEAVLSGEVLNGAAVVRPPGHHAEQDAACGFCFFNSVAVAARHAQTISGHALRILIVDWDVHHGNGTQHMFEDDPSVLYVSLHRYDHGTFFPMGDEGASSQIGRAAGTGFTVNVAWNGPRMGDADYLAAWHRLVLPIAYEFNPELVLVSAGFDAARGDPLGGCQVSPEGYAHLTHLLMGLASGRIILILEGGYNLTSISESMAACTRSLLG

Turning to `O=C(CO)NCc1ccc(C(=O)CSc2nc3cc(C(F)(F)F)ncc3o2)s1` [Compound 71, 2-hydroxy-N-((5-(2-((6-(trifluoromethyl)oxazolo[5,4-c]156yrrolid-2-yl)thio)acetyl)thiophen-2-yl)methyl)acetamide], the IC50 is no more than 100 nM in test [1], no more than 100 nM in test [2] and 1000 to 10000 nM in test [3].
Consider `O=C(CO)NCc1ccc(C(=O)CSc2nc3nc(C(F)(F)F)ccc3o2)s1` [Compound 72, 2-hydroxy-N-((5-(2-((5-(trifluoromethyl)oxazolo[4,5-b]156yrrolid-2-yl)thio)acetyl)thiophen-2-yl)methyl)acetamide], for which the figures for the IC50 in test [1], in test [2] and in test [3] were no more than 100 nM, no more than 100 nM and 500 to 1000 nM, respectively.
On to `Cc1nc(SCC(=O)c2ccc(CNC(=O)CO)s2)c2cc(Cl)c(F)cc2n1` [Compound 73, N-((5-(2-((6-chloro-7-fluoro-2-methylquinazolin-4-yl)thio)acetyl)thiophen-2-yl)methyl)-2-hydroxyacetamide], for which the IC50 is no more than 100 nM in test [1], no more than 100 nM in test [2] and greater than 10000 nM in test [3].
As for `Cn1ncc2c(SCC(=O)c3ccc(CNC(=O)CO)s3)nc(C(F)(F)F)nc21` [Compound 74, 2-hydroxy-N-((5-(2-((1-methyl-6-(trifluoromethyl)-1H-pyrazolo[3,4-d]pyrimidin-4-yl)thio)acetyl)thiophen-2-yl)methyl)acetamide], the values for the IC50 in test [1], in test [2] and in test [3] were no more than 100 nM, no more than 100 nM and greater than 10000 nM, respectively.
For `Cc1nc(SCC(=O)c2ccc(CNC(=O)CO)s2)c2cc(C(F)(F)F)ccc2n1` [Compound 76, 2-hydroxy-N-((5-(2-((2-methyl-6-(trifluoromethyl)quinazolin-4-yl)thio)acetyl)thiophen-2-yl)methyl)acetamide], the IC50 in test [1] is no more than 100 nM; in test [2], no more than 100 nM; in test [3] it was greater than 10000 nM.
With `O=C(CO)NCc1ccc(C(=O)CSc2nc(C(F)(F)F)nc3nn(C4CC4)cc23)s1` [Compound 79, N-((5-(2-((2-cyclopropyl-6-(trifluoromethyl)-2H-pyrazolo[3,4-d]pyrimidin-4-yl)thio)acetyl)thiophen-2-yl)methyl)-2-hydroxyacetamide], the IC50 in test [1] was no more than 100 nM; in test [2], no more than 100 nM; in test [3], greater than 10000 nM.
Regarding `Cc1nc(SCC(=O)c2ccc(CNC(=O)CO)s2)c2cc(N3CCN(C)CC3)ccc2n1` [Compound 85, 2-hydroxy-N-((5-(2-((2-methyl-6-(4-methylpiperazin-1-yl)quinazolin-4-yl)thio)acetyl)thiophen-2-yl)methyl)acetamide], the IC50 in test [1] was no more than 100 nM; in test [2] it was no more than 100 nM; in test [3] it was greater than 10000 nM.
Consider `O=C(CO)NCc1ccc(C(=O)CSc2nc(C(F)(F)F)nc3ncccc23)s1` [Compound 113, 2-hydroxy-N-((5-(2-((2-(trifluoromethyl)pyrido[2,3-d]pyrimidin-4-yl)thio)acetyl)thiophen-2-yl)methyl)acetamide], for which the IC50 in test [1] was no more than 100 nM; in test [2], no more than 100 nM; in test [3], greater than 10000 nM.
Regarding `O=C(CSc1nc(C(F)(F)F)nc2ncccc12)c1ccc(CNC(=O)C2CC2(F)F)s1` (stereo not drawn) [Compound 114, 2,2-difluoro-N-((5-(2-((2-(trifluoromethyl)pyrido[2,3-d]pyrimidin-4-yl)thio)acetyl)thiophen-2-yl)methyl)cyclopropane-1-carboxamide], the IC50 is no more than 100 nM in test [1], no more than 100 nM in test [2] and greater than 10000 nM in test [3].
For `O=C(CO)NCc1ccc(C(=O)CSc2nc3ccc(C(F)(F)F)nc3o2)s1` [Compound 117, 2-hydroxy-N-((5-(2-((5-(trifluoromethyl)oxazolo[5,4-b]157yrrolid-2-yl)thio)acetyl)thiophen-2-yl)methyl)acetamide], the IC50 in test [1] was no more than 100 nM; in test [2], no more than 100 nM; in test [3] it was greater than 10000 nM.
As for `O=C(CO)NCc1ccc(C(=O)CSc2nc3ncc(C(F)(F)F)cc3o2)s1` [Compound 118, 2-hydroxy-N-((5-(2-((6-(trifluoromethyl)oxazolo[4,5-b]157yrrolid-2-yl)thio)acetyl)thiophen-2-yl)methyl)acetamide], the IC50 in test [1] is no more than 100 nM; in test [2], no more than 100 nM; in test [3], 500 to 1000 nM.
As to `Cc1nc(SCC(=O)c2ccc(CNC(=O)CO)s2)c2cc(C(F)(F)F)cnc2n1` [Compound 119, 2-hydroxy-N-((5-(2-((2-methyl-6-(trifluoromethyl)pyrido[2,3-d]pyrimidin-4-yl)thio)acetyl)thiophen-2-yl)methyl)acetamide], the IC50 in test [1] was no more than 100 nM; in test [2] it was no more than 100 nM; in test [3], greater than 10000 nM.
For `Cc1nc(SCC(=O)c2ccc(CNC(=O)CO)s2)c2cc(F)cnc2n1` [Compound 124, N-((5-(2-((6-fluoro-2-methylpyrido[2,3-d]pyrimidin-4-yl)thio)acetyl)thiophen-2-yl)methyl)-2-hydroxyacetamide], the IC50 in test [1] is no more than 100 nM; in test [2], no more than 100 nM; in test [3], greater than 10000 nM.
Regarding `COCCn1ncc2c(SCC(=O)c3ccc(CNC(=O)CO)s3)nc(C(F)(F)F)nc21` [Compound 125, 2-hydroxy-N-((5-(2-((1-(2-methoxyethyl)-6-(trifluoromethyl)-1H-pyrazolo[3,4-d]pyrimidin-4-yl)thio)acetyl)thiophen-2-yl)methyl)acetamide], the IC50 was no more than 100 nM in test [1], no more than 100 nM in test [2] and greater than 10000 nM in test [3].
Regarding `Cc1nc(SCC(=O)c2ccc(CNC(=O)CO)s2)c2cc(OC(F)(F)F)ccc2n1` [Compound 126, 2-hydroxy-N-((5-(2-((2-methyl-6-(trifluoromethoxy)quinazolin-4-yl)thio)acetyl)thiophen-2-yl)methyl)acetamide], the IC50 in test [1] is no more than 100 nM; in test [2], no more than 100 nM; in test [3] it was greater than 10000 nM.
Take `COCCn1cc2c(SCC(=O)c3ccc(CNC(=O)CO)s3)nc(C(F)(F)F)nc2n1` [Compound 132, 2-hydroxy-N-((5-(2-((2-(2-methoxyethyl)-6-(trifluoromethyl)-2H-pyrazolo[3,4-d]pyrimidin-4-yl)thio)acetyl)thiophen-2-yl)methyl)acetamide]: the results for the IC50 in test [1], in test [2] and in test [3] were no more than 100 nM, no more than 100 nM and greater than 10000 nM, respectively.
Consider `O=C(CO)NCc1ccc(C(=O)CSc2nc(C(F)(F)F)nc3c2cnn3C2CC2)s1` [Compound 133, N-((5-(2-((1-cyclopropyl-6-(trifluoromethyl)-1H-pyrazolo[3,4-d]pyrimidin-4-yl)thio)acetyl)thiophen-2-yl)methyl)-2-hydroxyacetamide], for which the IC50 is no more than 100 nM in test [1], no more than 100 nM in test [2] and greater than 10000 nM in test [3].
For the molecule `CCn1cc2c(SCC(=O)c3ccc(CNC(=O)CO)s3)nc(C(F)(F)F)nc2n1` [Compound 135, N-((5-(2-((2-ethyl-6-(trifluoromethyl)-2H-pyrazolo[3,4-d]pyrimidin-4-yl)thio)acetyl)thiophen-2-yl)methyl)-2-hydroxyacetamide], the values for the IC50 in test [1], in test [2] and in test [3] were no more than 100 nM, no more than 100 nM and greater than 10000 nM, respectively.
For the molecule `COc1cnc2nc(C)nc(SCC(=O)c3ccc(CNC(=O)CO)s3)c2c1` [Compound 140, 2-hydroxy-N-((5-(2-((6-methoxy-2-methylpyrido[2,3-d]pyrimidin-4-yl)thio)acetyl)thiophen-2-yl)methyl)acetamide], the IC50 in test [1] is no more than 100 nM; in test [2], no more than 100 nM; in test [3], greater than 10000 nM.
For `Cc1nc(SCC(=O)c2ccc(CNC(=O)CO)s2)c2cc(Cl)cc(F)c2n1` [Compound 142, N-((5-(2-((6-chloro-8-fluoro-2-methylquinazolin-4-yl)thio)acetyl)thiophen-2-yl)methyl)-2-hydroxyacetamide], the IC50 in test [1] is no more than 100 nM; in test [2] it was no more than 100 nM; in test [3], greater than 10000 nM.
With `COc1cc(C(F)(F)F)cc2c(SCC(=O)c3ccc(CNC(=O)CO)s3)nc(C)nc12` [Compound 148, 2-hydroxy-N-((5-(2-((8-methoxy-2-methyl-6-(trifluoromethyl)quinazolin-4-yl)thio)acetyl)thiophen-2-yl)methyl)acetamide], the IC50 in test [1] was no more than 100 nM; in test [2], no more than 100 nM; in test [3], greater than 10000 nM.
Consider `O=C(CO)NCc1ccc(C(=O)CSc2nc(C(F)(F)F)nc3cccnc23)s1` [Compound 152, 2-hydroxy-N-((5-(2-((2-(trifluoromethyl)pyrido[3,2-d]pyrimidin-4-yl)thio)acetyl)thiophen-2-yl)methyl)acetamide], for which the IC50 in test [1] is no more than 100 nM; in test [2], no more than 100 nM; in test [3], greater than 10000 nM.
